Results reported in the NIST ThermoML archive (doi:10.1021/je8007167).
“And” between values parts separate entries of the source, which are not always exact repeats. Equal entries are not always repeated. ± gives the expanded uncertainty stated by the source.

Settings: Crystal, Torsion effusion method

SMILES: [Cl][Al]([Cl])[Cl] [aluminum chloride]
- vapor or sublimation pressure (321 K): 0.00017 ± 7.1e-05 kPa
- vapor or sublimation pressure (323 K): 0.000234 ± 7.4e-05 kPa
- vapor or sublimation pressure (327 K): 0.00038 ± 9.1e-05 kPa
- vapor or sublimation pressure (329 K): 0.000525 ± 9.3e-05 kPa and 0.000513 ± 9.2e-05 kPa
- vapor or sublimation pressure (330 K): 0.00055 ± 0.0001 kPa
- vapor or sublimation pressure (333 K): 0.000676 ± 0.00016 kPa
- vapor or sublimation pressure (334 K): 0.000891 ± 0.00027 kPa
- vapor or sublimation pressure (336 K): 0.001023 ± 0.00032 kPa
- vapor or sublimation pressure (338 K): 0.001622 ± 0.0004 kPa
- vapor or sublimation pressure (339 K): 0.001622 ± 0.00048 kPa and 0.001585 ± 0.00048 kPa
- vapor or sublimation pressure (340 K): 0.002089 ± 0.00056 kPa and 0.001862 ± 0.00055 kPa
- vapor or sublimation pressure (342 K): 0.002455 ± 0.00068 kPa
- vapor or sublimation pressure (343 K): 0.002951 ± 0.00065 kPa
- vapor or sublimation pressure (344 K): 0.003388 ± 0.00081 kPa
- vapor or sublimation pressure (345 K): 0.003631 ± 0.0008 kPa and 0.003715 ± 0.0008 kPa
- vapor or sublimation pressure (346 K): 0.003981 ± 0.0011 kPa
- vapor or sublimation pressure (347 K): 0.004898 ± 0.0012 kPa and 0.004266 ± 0.0011 kPa
- vapor or sublimation pressure (348 K): 0.004786 ± 0.0011 kPa and 0.00537 ± 0.0011 kPa
- vapor or sublimation pressure (349 K): 0.00631 ± 0.0015 kPa
- vapor or sublimation pressure (350 K): 0.006761 ± 0.0012 kPa
- vapor or sublimation pressure (351 K): 0.006761 ± 0.002 kPa and 0.006457 ± 0.002 kPa
- vapor or sublimation pressure (352 K): 0.008318 ± 0.0019 kPa
- vapor or sublimation pressure (353 K): 0.008318 ± 0.0017 kPa and 0.008913 ± 0.0017 kPa
- vapor or sublimation pressure (354 K): 0.01072 ± 0.0022 kPa and 0.00912 ± 0.0023 kPa
- vapor or sublimation pressure (355 K): 0.01202 ± 0.0021 kPa and 0.01175 ± 0.0021 kPa
- vapor or sublimation pressure (356 K): 0.01175 ± 0.0036 kPa
- vapor or sublimation pressure (358 K): 0.01445 ± 0.0036 kPa and 0.01585 ± 0.0035 kPa
- vapor or sublimation pressure (362 K): 0.02399 ± 0.0058 kPa
- vapor or sublimation pressure (363 K): 0.0263 ± 0.0057 kPa
- vapor or sublimation pressure (366 K): 0.03715 ± 0.0084 kPa
- vapor or sublimation pressure (368.5 K): 0.04898 ± 0.011 kPa
- vapor or sublimation pressure (369 K): 0.05129 ± 0.011 kPa
- vapor or sublimation pressure (372 K): 0.06918 ± 0.018 kPa
- vapor or sublimation pressure (373 K): 0.08511 ± 0.018 kPa
- vapor or sublimation pressure (376.5 K): 0.1175 ± 0.019 kPa
- vapor or sublimation pressure (378 K): 0.1288 ± 0.019 kPa

SMILES: [F][Al]([F])[F] [aluminum fluoride]
- vapor or sublimation pressure (956 K): 0.000105 ± 3.5e-05 kPa
- vapor or sublimation pressure (960 K): 0.000132 ± 3.9e-05 kPa
- vapor or sublimation pressure (968 K): 0.000209 ± 2.5e-05 kPa
- vapor or sublimation pressure (970 K): 0.000209 ± 2.4e-05 kPa
- vapor or sublimation pressure (974 K): 0.000209 ± 3.3e-05 kPa
- vapor or sublimation pressure (975 K): 0.000209 ± 3.9e-05 kPa
- vapor or sublimation pressure (977 K): 0.000263 ± 3.8e-05 kPa
- vapor or sublimation pressure (982 K): 0.000316 ± 4.3e-05 kPa
- vapor or sublimation pressure (985 K): 0.000363 ± 4.8e-05 kPa
- vapor or sublimation pressure (987 K): 0.000363 ± 5.4e-05 kPa
- vapor or sublimation pressure (991 K): 0.000417 ± 6.9e-05 kPa and 0.000468 ± 6.9e-05 kPa
- vapor or sublimation pressure (994 K): 0.000468 ± 8e-05 kPa
- vapor or sublimation pressure (998 K): 0.000575 ± 8.2e-05 kPa
- vapor or sublimation pressure (1001 K): 0.000631 ± 8.5e-05 kPa
- vapor or sublimation pressure (1002 K): 0.000676 ± 8.8e-05 kPa
- vapor or sublimation pressure (1007 K): 0.000724 ± 0.0001 kPa
- vapor or sublimation pressure (1010 K): 0.000813 ± 0.00012 kPa
- vapor or sublimation pressure (1013 K): 0.000933 ± 0.00015 kPa
- vapor or sublimation pressure (1014 K): 0.000933 ± 0.00015 kPa
- vapor or sublimation pressure (1018 K): 0.001122 ± 0.00014 kPa
- vapor or sublimation pressure (1022 K): 0.001259 ± 0.00018 kPa
- vapor or sublimation pressure (1023 K): 0.001259 ± 0.00017 kPa
- vapor or sublimation pressure (1026 K): 0.001413 ± 0.0002 kPa
- vapor or sublimation pressure (1029 K): 0.001549 ± 0.0002 kPa
- vapor or sublimation pressure (1033 K): 0.00182 ± 0.00024 kPa
- vapor or sublimation pressure (1036 K): 0.001862 ± 0.00029 kPa
- vapor or sublimation pressure (1040 K): 0.002188 ± 0.00027 kPa
- vapor or sublimation pressure (1043 K): 0.002512 ± 0.00033 kPa
- vapor or sublimation pressure (1048 K): 0.002754 ± 0.00032 kPa
- vapor or sublimation pressure (1052 K): 0.003162 ± 0.00038 kPa and 0.003236 ± 0.00038 kPa
- vapor or sublimation pressure (1053 K): 0.003236 ± 0.00044 kPa
- vapor or sublimation pressure (1059 K): 0.00389 ± 0.00058 kPa
- vapor or sublimation pressure (1062 K): 0.004467 ± 0.00055 kPa
- vapor or sublimation pressure (1063 K): 0.004365 ± 0.00054 kPa
- vapor or sublimation pressure (1066 K): 0.005012 ± 0.00067 kPa
- vapor or sublimation pressure (1070 K): 0.00537 ± 0.00073 kPa
- vapor or sublimation pressure (1071 K): 0.005754 ± 0.0007 kPa
- vapor or sublimation pressure (1074 K): 0.00631 ± 0.0008 kPa
- vapor or sublimation pressure (1078 K): 0.006918 ± 0.00086 kPa
- vapor or sublimation pressure (1083 K): 0.008128 ± 0.00097 kPa and 0.008318 ± 0.00097 kPa
- vapor or sublimation pressure (1086 K): 0.008913 ± 0.0011 kPa
- vapor or sublimation pressure (1089 K): 0.009333 ± 0.0013 kPa
- vapor or sublimation pressure (1093 K): 0.01072 ± 0.0012 kPa
- vapor or sublimation pressure (1097 K): 0.0123 ± 0.0016 kPa
- vapor or sublimation pressure (1098 K): 0.01202 ± 0.0016 kPa
- vapor or sublimation pressure (1100 K): 0.01288 ± 0.0015 kPa
- vapor or sublimation pressure (1104 K): 0.01479 ± 0.0019 kPa
- vapor or sublimation pressure (1107 K): 0.01549 ± 0.0019 kPa
- vapor or sublimation pressure (1109 K): 0.01698 ± 0.0019 kPa
- vapor or sublimation pressure (1112 K): 0.0182 ± 0.0024 kPa
- vapor or sublimation pressure (1113 K): 0.01862 ± 0.0023 kPa
